Source: patent US10517954B2, “Pegylated carfilzomib compounds” (AMGEN INC., priority 2016, dated 2019)
pIC50: −log10 of the molar value.

Assays:
[1] = system: Proteasome chymotrypsin-like (CT-L) activity; test: Proteasome CT-L activity in blood and tissues after i.v. dosing (FIG. 3); format: in vivo, mice (Balb/c); details: i.v. bolus; blood, adrenal gland, heart and liver, in mice
Experimental: Carfilzomib standard was formulated in an aqueous solution of 10% (w/v)sulfobutylether-β-cyclodextrin and 10 mmol/L sodium citrate (pH 3.5) for administration (5 mg/kg). At selected time points after i.v. drug administration, tissue samples (adrenal, heart, liver and bone marrow) were collected. Whole blood was collected by cardiac puncture into tubes containing sodium heparin.
Approximately 0.4 mL of whole blood is collected using either EDTA microcentrifuged tubes. Samples are immediately placed on ice and spun at maximum speed for 2 minutes in a microcentrifuge at room temperature (RT). Cell pellets are stored on wet ice. Whole blood cell pellets are resuspended in 1 ml of phosphate buffered saline (PBS) and centrifuged at max speed at 4° C. Supernatants are removed and the pellets are washed a second time with PBS. Samples are resuspended in 2 volumes of lysis buffer (20 mM Tris, pH 8.0, 5 mM EDTA) then frozen and stored at −80° C. until analysis. […]
All samples were thawed on ice. […] These samples were then ready for assaying, or they may be frozen at −80° C. […] These samples were then ready for assaying, or they may be frozen at −80° C. […] The protein concentration for each sample was measured by Bradford assay. Proteasome chymotrypsin-like (CT-L) activity was quantitated by monitoring the release of free AMC from the fluorogenic peptide Suc-Leu-Leu-Val-Tyr-AMC (BostonBiochem).

[2] = system: cellular proteasome chymotrypsin-like (CT-L) in MOLT-4 human acute lymphoblastic leukemia T lymphoblasts; test: Proteosome inhibition in cells (AMC-LLVY fluorescent assay, FIGS. 9-14); format: cell-based; details: MOLT-4 cells, 1 hour incubation; read-out: cellular proteasome chymotrypsin-like (CT-L) IC50 inhibitory potency
Experimental: MOLT-4 human acute lymphoblastic leukemia T lymphoblasts were grown for at least 6 passages in growth media (RPMI-1640 basal media supplemented with 10% FBS and 1×L-glutamine). […] Serial dilutions were performed in DMSO to produce concentrations covering 7 logs, and then each serial dilution was further diluted 40× in growth media. Dilutions were then added in equal volume to wells containing cells, further diluting compound concentrations by two-fold. Cells were incubated at 37° C. (5% CO2) for 1 hour, then spun at 1500 rpm for 5 mins at RT. Media was removed and the cells were washed with PBS 3 times. After the last wash, supernatant was removed and the cell pellets were frozen on dry ice. Cell pellets were thawed and then lysed by resuspending in 50 uL lysis buffer on ice (20 mM Tris-HCl, 5 mM EDTA, pH 8). The preparation was centrifuged at 1500 rpm for 5 mins and then utilized directly for AMC-LLVY fluorescent assay.

[3] = PEG-carfilzomib mouse pK (FIG. 2); design: species or system mice (Balb/c); details: in vivo, iv
Experimental: Mean plasma concentration (μM) following intravenous administration of PEG-carfilzomib conjugate to female Balb/c mice (n=3). Dosage indicated is mg/kg of PEG-carfilzomib conjugate. […] Blood samples were collected at the indicated time points and plasma carfilzomib concentrations were measured in duplicate by LC/MS-MS. […] This standard carfilzomib represents the currently approved formulation for carfilzomib for treatment of multiple myeloma.

[4] = system: HT-29 Human Colorectal Adenocarcinoma Xenograph Model; test: Efficacy study in HT-29 xenograph model (FIG. 5, FIG. 6, Table 6); format: in vivo, SCID Beige Mice; details: for % Change compared to Vehicle: Day 40; for Day 0 Tumor Vol: baseline; for # of animals at day 40: n = 10 at start
Source text: (§1) Female Beige Severe Combined Immune Deficiency (SCID) mice (60 plus spares) were purchased from Harlan Laboratories (Livermore, Calif.) as 6- to 7-week-old mice. Following arrival, animals were weighed using an electronic balance (Ohaus SCOUT® PRO, Parsippany, N.J.), given a clinical examination to ensure that the animals were in good condition, and housed 5 per cage (prior to dosing). The animals were maintained in a HEPA-filtered environment in a Micro-VENT full-ventilation rodent housing system (Allentown Caging Equipment Co., Allentown, N.J.) providing at least 10 room air changes per hour Animal room controls were set to maintain temperature and relative humidity at 20° C.±1° C. and 50%±20%, respectively. Housing rooms were on a 12:12 light/dark cycle. Cages were autoclaved, and animals were bedded on SaniChip irradiated bedding 7990.BG (Harlan Teklad; Hayward, Calif.). Water was autoclaved and supplied ad libitum to each cage via water bottles. Irradiated 2018 Teklad Global 16% Protein Rodent Diet ((Harlan Teklad) supplied ad libitum to each cage.
Example 13 was prepared as generally described above. The carfilzomib comparator compound was prepared as CFZ-captisol (at 1 mg/mL). A powder sample of example 13 was diluted to 30 mg/ml (Group 3) or 50 mg/ml (Group 3 beginning fourth dose) or 40 mg/ml (Group 4) in 10% ETOH/saline. Vehicle and CFZ-captisol were stored at 4° C. throughout the study. During the study, example 13 was inspected regularly for potential changes in the quality of the suspension; none were observed
NCI-HT29 (HT-29; ATCC® HTB-38™), a human colorectal adenocarcinoma cancer cell (CA) line, was purchased from ATCC (Manassas, Va.). Following receipt at the MGI, cells were grown in-house for 7 passages in RPMI 1640 and 10% fetal bovine serum, then used to generate frozen stocks. The cells were recovered from the frozen stocks and cultured as above. Following growth, the cells were spun down and resuspended at a concentration of 5E07 cells/mL in serum-free medium without additives, then combined 1:1 with Matrigel™ (Trevigen, Gaithersburg, Md.). At the time of implant, cells corresponded to MGI Passage 7 (MGP7).
At approximately 3 weeks prior to the projected staging day, mice were implanted by subcutaneous (SC) injection into the lower left abdominal flank with 200 μL (5.0E06 cells) per mouse of the freshly prepared HT29:Matrigel mixture. All procedures were carried out in HEPA-filtered laminar-flow hoods.
When the tumors reached a mean volume of approximately 200 mm^3 per mouse, forty animals with established tumors and moderate body weights were randomized into 4 treatment groups (n=10 mice per group). Starting on Day 0, animals were administered by once-weekly (qw) injection with vehicle (Group 1) or twice-weekly D1D2 injection (i.e., two adjacent days each week) with CFZ-captisol at 5 mpk (Group 2) or OP-59381 at 150 mg/kg (Groups 3). Starting with the fourth dose (i.e., after three week), dosing of Group 3 animals was increased to 250 mg/kg. Group 4 was dosed once-weekly (qw) injection with or OP-59381 (Example 13) at 200 mg/kg. All of these doses were administered as intravenous (IV) injections at dose volumes of 5 mL/kg. After the IV dosing for the seventh week (i.e., after Day 42 for Groups 1-4), the tumor treatment efficacy appeared to slow or cease altogether.

[5] = system: HT-29 Colorectal Adenocarcinoma Xenograph Model; test: Second efficacy study in HT-29 xenograph model (FIG. 7); format: in vivo, SCID Beige Mice
Source text: as §1
Example 13 was formulated as described herein to the desired concentration. Carfilzomib was provided as CFZ-captisol (at 1 mg/mL). a powder sample of Example 13 was diluted to 30 mg/ml (Group 3) or 50 mg/ml (Group 4) in 10% ETOH/saline. Vehicle and CFZ-captisol were stored at 4° C. throughout the study. […]

[6] = mouse, in vivo, iv, 5 mg/kg
Experimental: The PEG carfilzomib compounds were administered to mice (Balb/c, male, n=9 per dose group) as an intravenous (i.v.) bolus at 5 mg/kg (equivalent to carfilzomib, dose volume 1 mL/kg). Blood samples from each mouse were collected at the indicated time points (0.5, 1, 2, 4, 6, 12, 16 and 24 hours post-dose) and 25 μL of the plasma samples were extracted by protein precipitation with 125 μL of acetonitrile containing D10-CFZ as an internal standard and then centrifuged. Carfilzomib concentrations were measured in the supernatant by LC-MS/MS using multiple reaction monitoring in the positive electrospray ionization mode. The lower limit of quantitation of the assay was 0.500 ng/mL.

[7] = in humans; cited from earlier work
[8] = Group 3, 150 mpk to 250 mpk (QW) IV

**Q.** Which “CT-L activity versus standard carfilzomib” value [1] does the source give for “4-(4-Acetoxy-3-((1-(PEG20K-4-Arm)-1H-1,2,3-triazol-4-yl)methoxy)benzyl)-4-((4S,7S,10S,13S)-10-benzyl-7-isobutyl-15-methyl-13-((R)-2-methyloxirane-2-carbonyl)-2,5,8,11-tetraoxo-4-phenethyl-3,6,9,12-tetraazahexadecyl)morpholin-4-ium methanesulfonate [Example 1]” here?
**A.** comparable

**Q.** With “4-(4-Acetoxy-3-((1-PEG2K-1H-1,2,3-triazol-4-yl)methoxy)benzyl)-4-((4S,7S,10S,13S)-10-benzyl-7-isobutyl-15-methyl-13-((R)-2-methyloxirane-2-carbonyl)-2,5,8,11-tetraoxo-4-phenethyl-3,6,9,12-tetraazahexadecyl)morpholin-4-ium mesylate [Example 36]” as the molecule, how does the pIC50 [2] read?
**A.** ~7.66

**Q.** With “4-(4-Acetoxy-3-((1-PEG3K-1H-1,2,3-triazol-4-yl)methoxy)benzyl)-4-((4S,7S,10S,13S)-10-benzyl-7-isobutyl-15-methyl-13-((R)-2-methyloxirane-2-carbonyl)-2,5,8,11-tetraoxo-4-phenethyl-3,6,9,12-tetraazahexadecyl)morpholin-4-ium mesylate [Example 35]” as the molecule, how does the pIC50 [2] read?
**A.** ~8.05

**Q.** With “4-(4-acetoxy-3-((1-(5-((2-PEG2K-ethyl)amino)-5-oxopentyl)-1H-1,2,3-triazol-4-yl)methoxy)benzyl)-4-((4S,7S,10S,13S)-10-benzyl-7-isobutyl-15-methyl-13-((R)-2-methyloxirane-2-carbonyl)-2,5,8,11-tetraoxo-4-phenethyl-3,6,9,12-tetraazahexadecyl)morpholin-4-ium mesylate [Example 38]” as the molecule, how does the pIC50 [2] read?
**A.** ~7.66

**Q.** With “4-(4-acetoxy-3-((1-(5-((2-PEG3K-ethyl)amino)-5-oxopentyl)-1H-1,2,3-triazol-4-yl)methoxy)benzyl)-4-((4S,7S,10S,13S)-10-benzyl-7-isobutyl-15-methyl-13-((R)-2-methyloxirane-2-carbonyl)-2,5,8,11-tetraoxo-4-phenethyl-3,6,9,12-tetraazahexadecyl)morpholin-4-ium mesylate [Example 37]” as the molecule, how does the pIC50 [2] read?
**A.** ~7.64

**Q.** For “4-((4S,7S,10S,13S)-10-Benzyl-7-isobutyl-15-methyl-13-((R)-2-methyloxirane-2-carbonyl)-2,5,8,11-tetraoxo-4-phenethyl-3,6,9,12-tetraazahexadecyl)-4-(3-((1-(PEG20K-4-Arm)-1H-1,2,3-triazol-4-yl)methoxy)-4-(pivaloyloxy)benzyl)morpholin-4-ium formate [Example 13]”, which “plasma concentration relative to control” value [3] is on record?
**A.** multiple log-fold over that of the control

**Q.** What about the “tumor growth vs. vehicle control by Day 19” value ([4]; 200 mpk Example 13, 5 mpk CFZ-captisol) of the same molecule?
**A.** significantly attenuated

**Q.** And the “Day 40 Tumor Vol” value [4, 8]?
**A.** 998.5 mm^3

**Q.** What about the “% Change compared to Vehicle” value [4, 8] of the same molecule?
**A.** −59.6%

**Q.** What about the “Day 0 Tumor Vol” value [4, 8] of the same molecule?
**A.** 95.5 mm^3

**Q.** And the “# of animals at day 40” value [4, 8]?
**A.** 9

**Q.** What about the “Day 40 Tumor Vol” value ([4]; Group 4, 200 mpk (QW) IV) of the same molecule?
**A.** 1443.0 mm^3

**Q.** And the “% Change compared to Vehicle” value ([4]; Group 4, 200 mpk (QW) IV)?
**A.** −41.6%

**Q.** And the “Day 0 Tumor Vol” value ([4]; Group 4, 200 mpk (QW) IV)?
**A.** 95.9 mm^3

**Q.** And the “# of animals at day 40” value ([4]; Group 4, 200 mpk (QW) IV)?
**A.** 7

**Q.** And the “Day-41 tumor sizes, % of control” value ([5]; Group 3, example 13 at 150 mg/kg IV (Table 7: QD × 2 (D1D2) × 6 weeks))?
**A.** 79.6%

**Q.** And the “Day-41 tumor sizes, % of control” value ([5]; Group 4, example 13 at 250 mg/kg IV, QW × 6 weeks)?
**A.** 61.8%

**Q.** What about the AUC0-24 [6] of the same molecule?
**A.** 3510 ng·h/mL

**Q.** What about the T1/2 [6] of the same molecule?
**A.** 3.68 h

**Q.** What about the “carfilzomib plasma concentration-time profile (FIG. 4)” value [6] of the same molecule?
**A.** significantly higher plasma concentrations for that lengthy duration of time

**Q.** What about the “time carfilzomib is present in / released into the plasma post administration” value [6] of the same molecule?
**A.** 25 h

**Q.** With `CC(C)C[C@H](NC(=O)[C@H](CCc1ccccc1)NC(=O)CN1CCOCC1)C(=O)N[C@@H](Cc1ccccc1)C(=O)N[C@@H](CC(C)C)C(=O)[C@@]1(C)CO1` [carfilzomib, Carfilzomib] as the molecule, how does the pIC50 [2] read?
**A.** ~8.04

**Q.** What about the half-life in-vivo [7] of the same molecule?
**A.** ≤ 1 h
